Experimental findings from article PMC11855827, “High-Throughput Screening of Five Compound Libraries for Anthelmintic Activity and Toxicity Leads to the Discovery of Two Flavonoid Compounds” (International Journal of Molecular Sciences, 2025) are described below.

The experiment has as its system C. elegans.
[1] abbreviates: Table S2, C. elegans SS assay, 110 μM, 0 h, averages of 4 data points.
Where [2] appears, read: Table S2, C. elegans SS assay, 110 μM, 24 h, averages of 4 data points.

Where two headings read alike, the source gives them in different places.

Turning to `COc1cc(-c2coc3cc(O[C@@H]4O[C@H](CO)[C@@H](O)[C@H](O)[C@H]4O)c(OC)c(O)c3c2=O)ccc1O` [Iristectorin B], the “Percentage of motility inhibition 0 h” value under setting [1] stood at 5%. Further, the “Percentage of motility inhibition 24 h” value under setting [2] came out at 6%.

Consider `CC(=O)O[C@@H]1[C@@H](O)[C@H](O[C@H]2CC[C@]34C[C@]35CC[C@]3(C)[C@@H]([C@@]6(C)CC[C@@H](C(C)(C)O)O6)[C@@H](O)C[C@@]3(C)[C@@H]5C[C@H](O[C@@H]3O[C@H](CO)[C@@H](O)[C@H](O)[C@H]3O)[C@H]4C2(C)C)OC[C@H]1O` [Isoastragaloside II], for which, under setting [1], the “Percentage of motility inhibition 0 h” value turned out to be 0%. The “Percentage of motility inhibition 24 h” value under setting [2] amounted to 9%.

With `CC(C)(O[C@@H]1O[C@H](CO)[C@@H](O)[C@H](O)[C@H]1O)[C@@H]1CC[C@](C)([C@H]2[C@@H](O)C[C@@]3(C)[C@@H]4C[C@H](O)[C@H]5C(C)(C)[C@@H](O[C@@H]6OC[C@@H](O)[C@H](O)[C@H]6O)CC[C@@]56C[C@@]46CC[C@]23C)O1` [Isoastragaloside IV], the “Percentage of motility inhibition 0 h” value under setting [1] was determined as 0%. In addition, under setting [2], the “Percentage of motility inhibition 24 h” value is reported as 0%.

For the compound `CC(=O)O[C@H]1[C@H](O[C@H]2CC[C@]34C[C@]35CC[C@]3(C)[C@@H]([C@@]6(C)CC[C@@H](C(C)(C)O)O6)[C@@H](O)C[C@@]3(C)[C@@H]5C[C@H](O[C@@H]3O[C@H](CO)[C@@H](O)[C@H](O)[C@H]3O)[C@H]4C2(C)C)OC[C@@H](OC(C)=O)[C@@H]1O` [Isoastragaloside I], the “Percentage of motility inhibition 0 h” value under setting [1] stood at 12%. The “Percentage of motility inhibition 24 h” value under setting [2] is given as 59%.

Turning to `Clc1ccc(C(Cn2ccnc2)OCc2c(Cl)cccc2Cl)c(Cl)c1.O=[N+]([O-])O` (stereo not drawn) [Isoconazole (nitrate)], the “Percentage of motility inhibition 0 h” value under setting [1] is given as 17%. In addition, under setting [2], the “Percentage of motility inhibition 24 h” value amounted to 4%.

For `CC1(C)C2=CCCC(C)(C)[C@]23CC[C@H]1C3` [Isolongifolene], under setting [1], the “Percentage of motility inhibition 0 h” value is recorded as 2%. In addition, the “Percentage of motility inhibition 24 h” value under setting [2] was determined as 39%.

For `O=c1c2cc(O)c(O)cc2oc2c([C@@H]3O[C@H](CO)[C@@H](O)[C@H](O)[C@H]3O)c(O)cc(O)c12` [Isomangiferin], the “Percentage of motility inhibition 0 h” value under setting [1] is reported as 28%. Moreover, under setting [2], the “Percentage of motility inhibition 24 h” value was found to be 46%.

For `C[C@H](CC[C@@H](O[C@@H]1O[C@H](CO[C@@H]2O[C@H](CO)[C@@H](O)[C@H](O)[C@H]2O)[C@@H](O)[C@H](O)[C@H]1O[C@@H]1O[C@H](CO)[C@@H](O)[C@H](O)[C@H]1O)C(C)(C)O)[C@H]1CC[C@@]2(C)[C@@H]3CC=C4[C@@H](CC[C@H](O[C@@H]5O[C@H](CO)[C@@H](O[C@@H]6O[C@H](CO)[C@@H](O)[C@H](O)[C@H]6O)[C@H](O)[C@H]5O)C4(C)C)[C@]3(C)[C@H](O)C[C@]12C` [Isomogroside V], the “Percentage of motility inhibition 0 h” value under setting [1] came to 28%. In addition, under setting [2], the “Percentage of motility inhibition 24 h” value came to 21%.

Turning to `COc1ccc([C@@H]2COc3cc(O[C@@H]4O[C@H](CO)[C@@H](O)[C@H](O)[C@H]4O)ccc3C2)c(O)c1OC` [Isomucronulatol 7‐O‐glucoside], under setting [1], the “Percentage of motility inhibition 0 h” value was determined as 8%. In addition, the “Percentage of motility inhibition 24 h” value under setting [2] stood at 10%.

Regarding `COc1ccc(C2COc3cc(O)ccc3C2)c(O)c1OC` (stereo not drawn) [Isomucronulatol], the “Percentage of motility inhibition 0 h” value under setting [1] was 7%. The “Percentage of motility inhibition 24 h” value under setting [2] was determined as 7%.

As to `COC(=O)C1=CO[C@@H](C)[C@@H]2CN3CC[C@@]4(C(=O)Nc5ccccc54)[C@@H]3C[C@H]12` [Isopteropodine], the “Percentage of motility inhibition 0 h” value under setting [1] was determined as 9%. Moreover, the “Percentage of motility inhibition 24 h” value under setting [2] came to 0%.

Take `COc1cc(-c2oc3cc(O)cc(O)c3c(=O)c2O[C@@H]2O[C@H](CO)[C@@H](O)[C@H](O)[C@H]2O[C@@H]2O[C@@H](C)[C@H](O)[C@@H](O)[C@H]2O)ccc1O` [Isorhamnetin‐3‐O‐neohespeidoside]: the “Percentage of motility inhibition 0 h” value under setting [1] came out at 45%. Also, the “Percentage of motility inhibition 24 h” value under setting [2] was 5%.

In the case of `COc1ccc([C@@H]2CC(=O)c3c(O)cc(O[C@@H]4O[C@H](CO)[C@@H](O)[C@H](O)[C@H]4O)cc3O2)cc1` [Isosakuranin], the “Percentage of motility inhibition 0 h” value under setting [1] is 1%. Besides, the “Percentage of motility inhibition 24 h” value under setting [2] turned out to be 2%.

Take `O=c1cc(-c2ccc(O)cc2)oc2c([C@@H]3O[C@H](CO)[C@@H](O)[C@H](O)[C@H]3O)c(O)c([C@@H]3OC[C@H](O)[C@H](O)[C@H]3O)c(O)c12` [Isoschaftoside]: the “Percentage of motility inhibition 0 h” value under setting [1] worked out at 9%. Besides, the “Percentage of motility inhibition 24 h” value under setting [2] is given as 0%.

Regarding `COc1cc(C2Oc3ccc([C@H]4Oc5cc(O)cc(O)c5C(=O)[C@@H]4O)cc3OC2CO)ccc1O` (stereo partly drawn) [Isosilybin], the “Percentage of motility inhibition 0 h” value under setting [1] worked out at 2%. Also, the “Percentage of motility inhibition 24 h” value under setting [2] is given as 0%.

`COc1ccc(-c2cc(=O)c3c(OC)cc(OC)c(OC)c3o2)cc1OC` [Isosinensetin]: the “Percentage of motility inhibition 0 h” value under setting [1] is listed as 0%. In addition, under setting [2], the “Percentage of motility inhibition 24 h” value was found to be 2%.

On to `C[C@H]1CC[C@@H]2N(C1)C[C@H]1[C@@H]3C[C@H]4[C@@H](C[C@@H](O)[C@H]5C[C@@H](O)CC[C@@]54C)[C@@H]3CC[C@@H]1[C@]2(C)O` [Isoverticine], for which the “Percentage of motility inhibition 0 h” value under setting [1] worked out at 0%. For the same compound, the “Percentage of motility inhibition 24 h” value under setting [2] is on record as 0%.

On to `C[C@@H]1O[C@@H](c2c(O)c([C@@H]3O[C@H](CO)[C@@H](O)[C@H](O)[C@H]3O)c3oc(-c4ccc(O)cc4)cc(=O)c3c2O)[C@H](O)[C@H](O)[C@H]1O` [Isoviolanthin], for which the “Percentage of motility inhibition 0 h” value under setting [1] was found to be 21%. Under setting [2], the “Percentage of motility inhibition 24 h” value came to 2%.

As to `COc1cc(-c2cc(=O)c3c(O)c(OC)c(O)cc3o2)ccc1O` [Jaceosidin], under setting [1], the “Percentage of motility inhibition 0 h” value was 0%. Also, the “Percentage of motility inhibition 24 h” value under setting [2] was 5%.

Regarding `COc1cc2c(cc1O)CC[n+]1cc3c(OC)c(OC)ccc3cc1-2.[Cl-]` [Jatrorrhizine (chloride)], the “Percentage of motility inhibition 0 h” value under setting [1] turned out to be 33%. The “Percentage of motility inhibition 24 h” value under setting [2] is reported as 4%.

Take `COc1cc2c(cc1O)CC[n+]1cc3c(OC)c(OC)ccc3cc1-2.[OH-]` [Jatrorrhizine (hydroxide)]: under setting [1], the “Percentage of motility inhibition 0 h” value is 8%. Further, the “Percentage of motility inhibition 24 h” value under setting [2] turned out to be 5%.

For the compound `Oc1cnc2c(O)cccc2c1` [Jineol], the “Percentage of motility inhibition 0 h” value under setting [1] stood at 0%. The “Percentage of motility inhibition 24 h” value under setting [2] stood at 0%.

`CC(C)=C[C@H]1C[C@](C)(O)[C@@H]2[C@H]3CC[C@@H]4[C@@]5(C)CC[C@H](O[C@@H]6OC[C@H](O)[C@H](O[C@@H]7O[C@H](CO[C@@H]8O[C@H](CO)[C@@H](O)[C@H](O)[C@H]8O)[C@@H](O)[C@H](O)[C@H]7O[C@@H]7OC[C@@H](O)[C@H](O)[C@H]7O)[C@H]6O[C@@H]6O[C@@H](C)[C@H](O)[C@@H](O)[C@H]6O)C(C)(C)[C@@H]5CC[C@@]4(C)[C@@]34CO[C@@]2(C4)O1` [Jujuboside A]: where the note is “110 µM”, the “Percentage of motility inhibition 0 h” value was 0% and the “Percentage of motility inhibition 24 h” value was determined as 0%.

As to `CC(C)=C[C@H]1C[C@](C)(O)[C@@H]2[C@H]3CC[C@@H]4[C@@]5(C)CC[C@H](O[C@@H]6OC[C@H](O)[C@H](O[C@@H]7O[C@H](CO)[C@@H](O)[C@H](O)[C@H]7O[C@@H]7OC[C@@H](O)[C@H](O)[C@H]7O)[C@H]6O[C@@H]6O[C@@H](C)[C@H](O)[C@@H](O)[C@H]6O)C(C)(C)[C@@H]5CC[C@@]4(C)[C@@]34CO[C@@]2(C4)O1` [Jujuboside B], under setting [1], the “Percentage of motility inhibition 0 h” value worked out at 0%. The “Percentage of motility inhibition 24 h” value under setting [2] is on record as 0%.

Turning to `O=c1c(O[C@@H]2O[C@H](CO[C@@H]3O[C@H](CO)[C@@H](O)[C@H](O)[C@H]3O)[C@@H](O)[C@H](O)[C@H]2O)c(-c2ccc(O)cc2)oc2cc(O)cc(O)c12` [Kaempferol 3‐O‐gentiobioside], under setting [1], the “Percentage of motility inhibition 0 h” value is 0%. For the same compound, the “Percentage of motility inhibition 24 h” value under setting [2] amounted to 12%.

As for `O=C(O)[C@H]1O[C@@H](Oc2c(-c3ccc(O)cc3)oc3cc(O)cc(O)c3c2=O)[C@H](O)[C@@H](O)[C@@H]1O` [Kaempferol 3‐O‐β‐D‐glucuronide], the “Percentage of motility inhibition 0 h” value under setting [1] amounted to 5%. The “Percentage of motility inhibition 24 h” value under setting [2] turned out to be 0%.

Take `C[C@@H]1O[C@@H](O[C@H]2[C@H](Oc3c(-c4ccc(O)cc4)oc4cc(O)cc(O)c4c3=O)O[C@H](CO)[C@@H](O)[C@@H]2O)[C@H](O)[C@H](O)[C@H]1O` [Kaempferol 3‐neohesperidoside]: under setting [1], the “Percentage of motility inhibition 0 h” value stood at 17%. The “Percentage of motility inhibition 24 h” value under setting [2] is recorded as 10%.

Consider `C[C@@H]1O[C@@H](O[C@H]2[C@H](Oc3c(-c4ccc(O)cc4)oc4cc(O)cc(O)c4c3=O)O[C@H](CO)[C@@H](O)[C@@H]2O)[C@H](O)[C@H](O)[C@H]1O` [Kaempferol‐3‐O‐glucorhamnoside], for which the “Percentage of motility inhibition 0 h” value under setting [1] is given as 5%. In addition, the “Percentage of motility inhibition 24 h” value under setting [2] was determined as 2%.

As to `C[C@@]12C=Cc3occc3[C@H]1CC[C@@]13C[C@@H](CC[C@H]12)[C@@](O)(CO)C3` [Kahweol], the “Percentage of motility inhibition 0 h” value under setting [1] is 11%. Moreover, the “Percentage of motility inhibition 24 h” value under setting [2] was determined as 19%.

Turning to `C=C1CC[C@@H]2[C@](C)(COC(=O)CCC(=O)[O-])[C@H](OC(=O)CCC(=O)O)CC[C@@]2(C)[C@@H]1/C=C/C1=CCOC1=O.[K+]` [Kalii Dehydrographolidi Succinas], under setting [1], the “Percentage of motility inhibition 0 h” value came to 5%. Also, the “Percentage of motility inhibition 24 h” value under setting [2] came out at 5%.

Consider `NC[C@H]1O[C@H](O[C@H]2[C@H](O)[C@@H](O[C@H]3O[C@H](CO)[C@@H](O)[C@H](N)[C@H]3O)[C@H](N)C[C@@H]2N)[C@H](O)[C@@H](O)[C@@H]1O.O=S(=O)(O)O` [Kanamycin (sulfate)], for which the “Percentage of motility inhibition 0 h” value under setting [1] is listed as 22%. Moreover, the “Percentage of motility inhibition 24 h” value under setting [2] is listed as 7%.

As to `C[C@@H]1CC[C@@H]2O[C@@]23C(=O)C(=O)[C@@H]2[C@@H](C2(C)C)[C@@]13C` [Kanshone C], the “Percentage of motility inhibition 0 h” value under setting [1] is listed as 17%. In addition, under setting [2], the “Percentage of motility inhibition 24 h” value worked out at 22%.

As to `C[C@H]1O[C@H](OC2[C@@H](O)[C@@H](O)C(O)[C@H](O)[C@H]2O)[C@@H](N)C[C@@H]1N=C(N)C(=O)O.Cl.O` (stereo partly drawn) [Kasugamycin (hydrochloride hydrate)], under setting [1], the “Percentage of motility inhibition 0 h” value came out at 12%. Under setting [2], the “Percentage of motility inhibition 24 h” value was 0%.
